Laboratory results: patent US8492555B2, “Salts of isobutyric acid (1 R*, 2R*, 4R*)-2-(2-{[3-(4,7-dimethoxy-1 H-benzoimidazol-2-yl)-methyl-amino}-ethyl)-5-phenyl-bicyclo[2.2.2]oct-5-en-2-yl ester” (Actelion Pharmaceuticals Ltd., priority 2008, dated 2013)

What was measured:
[1] = Hygroscopicity by scanned gravimetric vapour sorption; type: physicochemical; conditions: upwards scan; for Hygroscopicity classification: European Pharmacopea Technical Guide (1999), 40% to 80% relative humidity; for Hygroscopicity mass change: between 40% and 80% relative humidity
Excerpt: The mass change between 40% relative humidity and 80% relative humidity in the upwards scan was considered.

[2] = biological target: T1, human Cav1.2 channel (Homo sapiens, UniProt Q13936); test: In vitro assay L channel (FLIPR, KCl-induced calcium fluorescence); type: cell-based; conditions: HEK293 cells expressing human Cav1.2 with β-2a and α2δ-1; 20 mM KCl; read-out: L channel antagonistic activity IC50
T1 construct: expressed in transfected cells; host or cells: HEK293
T1 sequence (Q13936 whole entry): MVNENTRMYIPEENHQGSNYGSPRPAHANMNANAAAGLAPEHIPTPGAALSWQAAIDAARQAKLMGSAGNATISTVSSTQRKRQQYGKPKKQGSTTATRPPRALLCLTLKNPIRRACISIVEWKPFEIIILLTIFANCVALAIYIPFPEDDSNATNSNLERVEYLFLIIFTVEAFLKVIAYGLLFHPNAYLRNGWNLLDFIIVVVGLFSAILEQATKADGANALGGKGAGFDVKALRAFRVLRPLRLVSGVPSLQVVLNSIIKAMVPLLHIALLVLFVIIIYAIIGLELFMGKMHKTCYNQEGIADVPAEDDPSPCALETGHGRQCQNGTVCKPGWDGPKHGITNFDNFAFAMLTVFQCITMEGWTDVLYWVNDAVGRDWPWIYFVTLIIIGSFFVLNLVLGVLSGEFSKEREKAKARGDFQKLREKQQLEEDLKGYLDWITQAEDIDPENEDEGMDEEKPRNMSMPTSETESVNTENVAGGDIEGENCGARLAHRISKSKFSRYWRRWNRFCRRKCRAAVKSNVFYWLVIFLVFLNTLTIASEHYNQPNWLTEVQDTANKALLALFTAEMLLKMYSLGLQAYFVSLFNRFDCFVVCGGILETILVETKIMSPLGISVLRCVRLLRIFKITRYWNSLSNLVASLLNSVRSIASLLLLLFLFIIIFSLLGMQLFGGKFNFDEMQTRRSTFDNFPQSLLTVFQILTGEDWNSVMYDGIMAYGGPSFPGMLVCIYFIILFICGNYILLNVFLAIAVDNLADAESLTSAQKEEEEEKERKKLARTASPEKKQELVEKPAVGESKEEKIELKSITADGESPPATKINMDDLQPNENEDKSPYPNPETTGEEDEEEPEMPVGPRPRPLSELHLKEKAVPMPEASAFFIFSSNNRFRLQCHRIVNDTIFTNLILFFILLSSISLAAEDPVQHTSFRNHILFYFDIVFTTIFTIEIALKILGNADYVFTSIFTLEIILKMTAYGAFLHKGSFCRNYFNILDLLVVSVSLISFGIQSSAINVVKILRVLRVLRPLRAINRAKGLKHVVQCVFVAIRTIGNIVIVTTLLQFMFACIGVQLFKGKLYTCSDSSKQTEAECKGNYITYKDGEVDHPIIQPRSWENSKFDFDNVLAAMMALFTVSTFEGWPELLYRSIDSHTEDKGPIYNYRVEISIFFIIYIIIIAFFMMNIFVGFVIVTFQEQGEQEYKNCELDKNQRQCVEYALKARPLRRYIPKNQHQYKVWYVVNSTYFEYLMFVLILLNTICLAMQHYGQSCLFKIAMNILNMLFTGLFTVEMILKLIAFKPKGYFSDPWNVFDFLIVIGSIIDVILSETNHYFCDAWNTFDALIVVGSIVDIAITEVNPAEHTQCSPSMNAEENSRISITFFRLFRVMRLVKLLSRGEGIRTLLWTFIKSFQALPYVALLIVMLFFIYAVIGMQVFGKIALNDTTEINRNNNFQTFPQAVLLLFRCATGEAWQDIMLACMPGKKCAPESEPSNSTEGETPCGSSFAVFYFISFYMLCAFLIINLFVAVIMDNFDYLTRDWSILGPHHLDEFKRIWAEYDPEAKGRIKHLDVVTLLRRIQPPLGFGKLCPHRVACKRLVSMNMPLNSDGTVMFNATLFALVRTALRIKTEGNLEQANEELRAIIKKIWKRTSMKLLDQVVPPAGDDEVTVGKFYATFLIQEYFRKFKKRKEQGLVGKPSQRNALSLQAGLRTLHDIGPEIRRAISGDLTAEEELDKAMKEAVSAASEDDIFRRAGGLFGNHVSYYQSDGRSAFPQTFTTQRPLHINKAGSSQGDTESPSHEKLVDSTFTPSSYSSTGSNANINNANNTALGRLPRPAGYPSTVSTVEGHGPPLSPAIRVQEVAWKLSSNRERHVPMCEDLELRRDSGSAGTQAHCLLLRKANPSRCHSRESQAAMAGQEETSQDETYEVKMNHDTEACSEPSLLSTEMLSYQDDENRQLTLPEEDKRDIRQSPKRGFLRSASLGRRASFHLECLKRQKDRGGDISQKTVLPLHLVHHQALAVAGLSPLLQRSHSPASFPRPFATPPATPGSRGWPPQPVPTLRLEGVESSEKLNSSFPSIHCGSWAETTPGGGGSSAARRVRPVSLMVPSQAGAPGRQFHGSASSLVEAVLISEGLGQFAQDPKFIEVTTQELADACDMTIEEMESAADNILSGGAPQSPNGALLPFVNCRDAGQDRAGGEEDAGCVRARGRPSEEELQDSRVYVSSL
T1 sequence (Q08289 whole entry partner): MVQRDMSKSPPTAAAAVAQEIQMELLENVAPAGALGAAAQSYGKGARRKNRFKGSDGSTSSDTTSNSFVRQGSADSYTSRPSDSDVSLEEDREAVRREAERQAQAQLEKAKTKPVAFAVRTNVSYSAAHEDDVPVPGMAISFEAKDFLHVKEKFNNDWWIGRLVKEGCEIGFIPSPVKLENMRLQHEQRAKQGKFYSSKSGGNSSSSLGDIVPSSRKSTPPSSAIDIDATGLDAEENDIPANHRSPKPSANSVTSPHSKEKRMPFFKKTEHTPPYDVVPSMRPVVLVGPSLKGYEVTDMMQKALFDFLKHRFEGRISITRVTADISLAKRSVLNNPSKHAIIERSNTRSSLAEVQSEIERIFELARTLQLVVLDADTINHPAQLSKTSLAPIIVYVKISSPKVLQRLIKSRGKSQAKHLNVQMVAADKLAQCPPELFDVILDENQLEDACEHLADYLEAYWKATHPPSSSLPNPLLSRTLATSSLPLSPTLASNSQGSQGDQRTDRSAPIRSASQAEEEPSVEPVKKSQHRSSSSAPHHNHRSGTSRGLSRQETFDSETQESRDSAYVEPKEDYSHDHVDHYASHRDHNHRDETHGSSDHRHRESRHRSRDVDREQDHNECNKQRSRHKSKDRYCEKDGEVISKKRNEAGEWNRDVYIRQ
T1 sequence (P54289 25-946 partner limits assumed): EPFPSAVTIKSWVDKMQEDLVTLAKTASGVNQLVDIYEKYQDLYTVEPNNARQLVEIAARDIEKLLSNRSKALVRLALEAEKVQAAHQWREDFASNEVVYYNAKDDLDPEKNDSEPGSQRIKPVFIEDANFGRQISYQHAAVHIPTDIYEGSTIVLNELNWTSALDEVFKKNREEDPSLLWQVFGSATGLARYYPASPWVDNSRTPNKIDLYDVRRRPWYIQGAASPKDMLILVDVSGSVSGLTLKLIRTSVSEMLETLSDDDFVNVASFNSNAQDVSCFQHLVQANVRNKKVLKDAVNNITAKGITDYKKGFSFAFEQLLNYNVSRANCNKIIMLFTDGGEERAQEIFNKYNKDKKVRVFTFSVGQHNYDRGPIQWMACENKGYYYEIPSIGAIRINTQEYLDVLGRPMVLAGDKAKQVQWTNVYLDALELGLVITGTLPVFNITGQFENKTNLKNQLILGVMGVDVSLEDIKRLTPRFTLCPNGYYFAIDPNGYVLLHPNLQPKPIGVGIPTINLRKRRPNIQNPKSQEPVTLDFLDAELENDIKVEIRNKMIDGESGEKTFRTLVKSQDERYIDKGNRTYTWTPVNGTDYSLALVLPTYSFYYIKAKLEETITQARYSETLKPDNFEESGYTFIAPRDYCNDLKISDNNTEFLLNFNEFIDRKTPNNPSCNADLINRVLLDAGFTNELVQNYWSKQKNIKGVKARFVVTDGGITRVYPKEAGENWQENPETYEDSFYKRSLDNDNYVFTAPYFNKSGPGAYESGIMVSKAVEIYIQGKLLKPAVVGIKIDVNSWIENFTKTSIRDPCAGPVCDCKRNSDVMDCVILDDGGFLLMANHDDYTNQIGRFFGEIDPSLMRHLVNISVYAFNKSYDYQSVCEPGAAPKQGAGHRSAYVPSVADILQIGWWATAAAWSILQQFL
T1 sequence (P54289 947-1103 partner limits assumed): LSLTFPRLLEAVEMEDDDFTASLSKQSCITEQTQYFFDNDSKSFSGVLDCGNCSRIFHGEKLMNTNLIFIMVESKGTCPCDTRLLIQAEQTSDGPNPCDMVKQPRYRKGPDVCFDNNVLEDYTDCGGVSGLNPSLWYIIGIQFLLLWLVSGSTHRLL
Procedure: The L channel antagonistic activity (IC50 values) of Reference Examples 1A, 2A, and 3A is determined in accordance with the following experimental method.
Human embryonic kidney (HEK293) cells expressing the human Cav1.2 channel in addition to the auxiliary subunits β-2a and α2δ-1, are grown in culture medium (DMEM containing 10% heat-inactivated fetal calf serum (FCS), 100 U/ml penicillin, 100 μg/ml streptomycin, 100 μg/ml G418, 40 μg/ml zeocin and 100 μg/ml hygromycin). The cells are seeded at 20.000 cells/well into 384-well black clear bottom sterile plates (poly-L-lysine-coated, Becton Dickinson). The seeded plates are incubated overnight at 37° C. in 5% CO2. The KCl solution is prepared as 80 mM stock solution in assay buffer (HBSS containing 0.1% BSA, 20 mM HEPES, 0.375 g/l NaHCO3, adjusted to pH 7.4 with NaOH) for use in the assay at a final concentration of 20 mM. Antagonists are prepared as 10 mM stock solutions in DMSO, then diluted in 384 w plates first in DMSO, then in assay buffer to obtain 3× stocks. On the day of the assay, 25 μl of staining buffer (HBSS containing 20 mM HEPES, 0.375 g/l NaHCO3, and 3 μM of the fluorescent calcium indicator fluo-4 AM (1 mM stock solution in DMSO, containing 10% pluronic) is added to each well of the seeded plate. The 384-well cell-plates are incubated for 60 min at 37° C. in 5% CO2 followed by washing with 2×50 μl per well using assay buffer leaving 50 μl/well of this buffer for equilibration at room temperature (30-60 min). Within the Fluorescent Imaging Plate Reader (FLIPR, Molecular Devices), antagonists are added to the plate in a volume of 25 μl/well, incubated for 3 min and finally 25 μl/well of KCl solution is added for cellular depolarization. Fluorescence is measured for each well at 2 second intervals for 8 minutes, and the area under the curve of each fluorescence peak is compared to the area of the fluorescence peak induced by 20 mM KCl with vehicle in place of antagonist. […]

[3] = tested on: isolated mouse hearts; test: Effect on isolated hearts according to the Langendorff method; conditions: read-out: EC50 Langendorff experiment
Procedure: Effect on Isolated Hearts According to the Langendorff Method (Lgdff)
The Reference Examples 1A, 2A, and 3A were tested for their potential to reduce blood pressure and their effect on the contractility of the heart muscle. EC50 values on isolated mouse hearts were determined according to Literature (Doring H J., The isolated perfused heart according to Langendorff technique—function—application, Physiol. Bohemoslov. 1990, 39(6), 481-504; Kligfield P, Homer H, Brachfeld N., A model of graded ischemia in the isolated perfused rat heart, J. Appl. Physiol. 1976 June, 40(6), 1004-8).

EC50 [3] [nM]	Structure (SMILES)	Hygroscopicity classification [1]	Hygroscopicity mass change [1]	IC50 [2] [nM]
	Br.Br.COc1ccc(OC)c2[nH]c(CCCN(C)CCC3(OC(=O)C(C)C)CC4CCC3C=C4c3ccccc3)nc12 (stereo not drawn) [di-hydrobromic acid salt of COMPOUND]	Non hygroscopic	0.1%	
	COc1ccc(OC)c2[nH]c(CCCN(C)CC[C@]3(OC(=O)C(C)C)C[C@H]4CC[C@@H]3C=C4c3ccccc3)nc12 [Reference Example 3A, Isobutyric acid (1R,2R,4R)-2-(2-{[3-(4,7-dimethoxy-1H-benzoimidazol-2-yl)-propyl]-methyl-amino}-ethyl)-5-phenyl-bicyclo[2.2.2]oct-5-en-2-yl ester]			156 to 439
5	COc1ccc(OC)c2[nH]c(CCCN(C)CC[C@]3(OC(=O)C(C)C)C[C@H]4CC[C@@H]3C=C4c3ccccc3)nc12 (racemic) [Reference Example 1A, rac-Isobutyric acid (1R*,2R*,4R*)-2-(2-{[3-(4,7-dimethoxy-1H-benzoimidazol-2-yl)-propyl]-methyl-amino}-ethyl)-5-phenyl-bicyclo[2.2.2]oct-5-en-2-yl ester]			156 to 439
	COc1ccc(OC)c2[nH]c(CCCN(C)CCC3(OC(=O)C(C)C)CC4CCC3C=C4c3ccccc3)nc12.O=C(O)/C=C\C(=O)O.O=C(O)/C=C\C(=O)O (stereo not drawn) [di-maleic acid salt of COMPOUND]	Non hygroscopic	0.1%	
	COc1ccc(OC)c2[nH]c(CCCN(C)CCC3(OC(=O)C(C)C)CC4CCC3C=C4c3ccccc3)nc12.Cl.Cl (stereo not drawn) [di-hydrochloric acid salt of COMPOUND]	Slightly hygroscopic (mass	change 0.5%)	
	COc1ccc(OC)c2[nH]c(CCCN(C)CCC3(OC(=O)C(C)C)CC4CCC3C=C4c3ccccc3)nc12.COc1ccc(OC)c2[nH]c(CCCN(C)CCC3(OC(=O)C(C)C)CC4CCC3C=C4c3ccccc3)nc12.O=C(O)/C=C/C(=O)O.O=C(O)/C=C/C(=O)O.O=C(O)/C=C/C(=O)O (stereo not drawn) [sesqui-fumaric acid salt of COMPOUND]	Non hygroscopic	0.1%	
	COc1ccc(OC)c2[nH]c(CCCN(C)CC[C@@]3(OC(=O)C(C)C)C[C@@H]4CC[C@H]3C=C4c3ccccc3)nc12 [Reference Example 2A, Isobutyric acid (1S,2S,4S)-2-(2-{[3-(4,7-dimethoxy-1H-benzoimidazol-2-yl)-propyl]-methyl-amino}-ethyl)-5-phenyl-bicyclo[2.2.2]oct-5-en-2-yl ester]			156 to 439
